In patent US12662479B2 (Foghorn Therapeutics Inc., priority 2020, dated 2026):

Assays:
[1] = biological target: T1, HiBit-BRG1 fusion protein (Homo sapiens, UniProt P51532); experiment: HiBiT-BRG1 cell-based degradation assay (Nano-Glo HiBiT Lytic Detection, 24 h); conditions: HeLa cells expressing HiBit-BRG1 and LgBit; for DC50: read-out: BRG1 HiBit Degradation IC50; for Dmax: HeLa, top dose 30 μM, read-out: BRG1 HiBit Degradation Maximum measured
T1 construct: expressed in transfected cells
Summary of the method: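 Stable HeLa line expressing HiBiT-BRG1 and LgBiT, seeded at 5000 cells/well; luminescence read after lytic Nano-Glo HiBiT reagent and 10 min shaking at RT. % degradation normalised between DMSO (high control) and 2 μM reference BRM/BRG1 degrader (low control).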

HiBit-BRM fusion protein = biological target: T2, HiBit-BRM fusion protein (Homo sapiens, UniProt P51531); experiment: HiBiT-BRM cell-based degradation assay (Nano-Glo HiBiT Lytic Detection, 24 h); conditions: HeLa cells expressing HiBiT-BRM; for DC50: read-out: BRM HiBit Degradation IC50; for BRM HiBit Degradation Maximum measured: top dose 30 μM
T2 construct: expressed in transfected cells
Summary of the method: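 Luminescence from reconstituted NanoBiT luciferase in lysed HeLa HiBiT-BRM cells served as the measure of remaining BRM after 24 h treatment. Compounds were tested from 30 μM final downward in 3-fold steps. DMSO and 2 μM of a standard BRM/BRG1 degrader defined the scale limits.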

T1 sequence (P51532 whole entry, the tested form may be a part): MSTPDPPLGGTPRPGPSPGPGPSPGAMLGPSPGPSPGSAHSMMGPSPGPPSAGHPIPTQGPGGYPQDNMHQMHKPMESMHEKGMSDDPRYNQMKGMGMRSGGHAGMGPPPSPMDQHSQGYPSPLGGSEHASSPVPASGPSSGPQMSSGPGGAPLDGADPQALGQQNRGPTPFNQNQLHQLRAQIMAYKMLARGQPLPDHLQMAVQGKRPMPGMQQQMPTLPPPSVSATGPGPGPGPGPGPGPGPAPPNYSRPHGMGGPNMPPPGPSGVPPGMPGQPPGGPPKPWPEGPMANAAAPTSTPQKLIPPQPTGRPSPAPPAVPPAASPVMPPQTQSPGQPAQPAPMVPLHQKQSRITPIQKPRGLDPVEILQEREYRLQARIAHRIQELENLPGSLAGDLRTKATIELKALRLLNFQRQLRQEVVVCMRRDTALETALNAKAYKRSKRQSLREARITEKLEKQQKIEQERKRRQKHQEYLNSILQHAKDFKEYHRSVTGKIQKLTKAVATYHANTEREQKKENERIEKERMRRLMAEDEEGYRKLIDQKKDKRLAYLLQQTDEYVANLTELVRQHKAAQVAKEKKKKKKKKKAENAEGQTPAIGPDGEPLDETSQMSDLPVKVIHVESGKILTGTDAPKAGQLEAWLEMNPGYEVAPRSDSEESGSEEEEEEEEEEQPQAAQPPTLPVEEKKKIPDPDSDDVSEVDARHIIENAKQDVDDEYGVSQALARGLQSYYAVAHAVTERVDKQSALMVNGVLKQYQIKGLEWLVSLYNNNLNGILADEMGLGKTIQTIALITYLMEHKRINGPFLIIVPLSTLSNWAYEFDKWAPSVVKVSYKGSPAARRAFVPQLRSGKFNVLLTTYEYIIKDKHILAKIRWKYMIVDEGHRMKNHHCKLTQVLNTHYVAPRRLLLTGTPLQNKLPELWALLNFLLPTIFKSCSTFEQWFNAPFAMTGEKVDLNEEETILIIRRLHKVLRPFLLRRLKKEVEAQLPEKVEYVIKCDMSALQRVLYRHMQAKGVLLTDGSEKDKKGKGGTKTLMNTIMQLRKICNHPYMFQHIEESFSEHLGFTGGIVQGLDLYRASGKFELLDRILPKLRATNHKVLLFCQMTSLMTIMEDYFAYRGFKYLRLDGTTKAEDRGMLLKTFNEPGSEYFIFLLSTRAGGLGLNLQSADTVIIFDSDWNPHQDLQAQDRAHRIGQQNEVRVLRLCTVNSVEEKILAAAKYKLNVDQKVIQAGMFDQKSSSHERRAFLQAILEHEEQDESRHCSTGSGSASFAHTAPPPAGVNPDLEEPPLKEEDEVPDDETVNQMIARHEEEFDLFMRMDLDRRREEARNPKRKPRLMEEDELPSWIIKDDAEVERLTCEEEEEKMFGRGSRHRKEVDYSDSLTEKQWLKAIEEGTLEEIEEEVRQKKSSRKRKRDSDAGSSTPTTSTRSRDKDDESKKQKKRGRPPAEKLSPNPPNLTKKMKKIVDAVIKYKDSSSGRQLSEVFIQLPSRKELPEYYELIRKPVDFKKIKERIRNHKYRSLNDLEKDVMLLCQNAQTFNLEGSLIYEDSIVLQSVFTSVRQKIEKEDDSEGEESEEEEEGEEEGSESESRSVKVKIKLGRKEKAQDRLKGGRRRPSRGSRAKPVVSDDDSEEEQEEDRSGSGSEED
T2 sequence (P51531 whole entry, the tested form may be a part): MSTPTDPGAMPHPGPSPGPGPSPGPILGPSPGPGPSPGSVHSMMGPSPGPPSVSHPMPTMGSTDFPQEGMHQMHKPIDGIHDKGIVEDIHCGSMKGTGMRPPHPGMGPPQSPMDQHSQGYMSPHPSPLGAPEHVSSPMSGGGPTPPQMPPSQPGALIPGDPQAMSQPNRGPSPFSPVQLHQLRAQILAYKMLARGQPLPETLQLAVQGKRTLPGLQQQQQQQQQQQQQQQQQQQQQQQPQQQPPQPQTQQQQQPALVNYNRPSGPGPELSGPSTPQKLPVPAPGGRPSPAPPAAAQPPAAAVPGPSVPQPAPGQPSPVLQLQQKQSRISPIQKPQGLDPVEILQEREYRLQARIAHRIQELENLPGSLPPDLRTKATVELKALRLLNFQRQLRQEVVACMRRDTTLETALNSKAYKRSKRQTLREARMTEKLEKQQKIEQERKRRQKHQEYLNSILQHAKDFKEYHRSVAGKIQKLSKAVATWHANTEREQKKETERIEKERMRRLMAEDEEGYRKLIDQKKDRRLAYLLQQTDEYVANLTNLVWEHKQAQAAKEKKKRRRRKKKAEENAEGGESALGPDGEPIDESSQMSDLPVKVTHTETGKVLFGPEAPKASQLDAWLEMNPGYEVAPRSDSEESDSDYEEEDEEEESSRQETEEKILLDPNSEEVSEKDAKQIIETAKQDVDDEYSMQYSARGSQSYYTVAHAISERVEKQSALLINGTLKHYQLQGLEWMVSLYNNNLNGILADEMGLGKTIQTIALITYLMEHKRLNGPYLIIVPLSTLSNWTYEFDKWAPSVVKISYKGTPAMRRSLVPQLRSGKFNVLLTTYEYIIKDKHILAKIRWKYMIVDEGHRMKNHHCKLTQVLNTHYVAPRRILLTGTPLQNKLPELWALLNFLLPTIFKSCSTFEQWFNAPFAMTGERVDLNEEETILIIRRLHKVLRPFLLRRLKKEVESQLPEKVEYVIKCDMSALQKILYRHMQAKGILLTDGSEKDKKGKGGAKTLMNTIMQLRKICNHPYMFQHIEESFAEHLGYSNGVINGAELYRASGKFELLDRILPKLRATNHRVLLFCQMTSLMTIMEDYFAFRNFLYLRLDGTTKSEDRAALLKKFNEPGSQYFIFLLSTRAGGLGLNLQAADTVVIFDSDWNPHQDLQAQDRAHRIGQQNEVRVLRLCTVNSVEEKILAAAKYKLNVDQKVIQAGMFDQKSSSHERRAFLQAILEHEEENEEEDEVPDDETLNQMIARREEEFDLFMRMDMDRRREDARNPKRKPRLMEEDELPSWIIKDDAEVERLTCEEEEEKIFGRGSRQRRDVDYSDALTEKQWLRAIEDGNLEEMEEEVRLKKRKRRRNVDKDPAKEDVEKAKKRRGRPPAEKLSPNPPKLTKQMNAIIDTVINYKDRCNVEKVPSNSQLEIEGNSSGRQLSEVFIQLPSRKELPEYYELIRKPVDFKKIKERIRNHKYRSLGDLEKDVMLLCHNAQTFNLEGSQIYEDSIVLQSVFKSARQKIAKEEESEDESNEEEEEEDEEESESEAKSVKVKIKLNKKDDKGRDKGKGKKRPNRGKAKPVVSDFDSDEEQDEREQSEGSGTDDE

DC50 [1]	Dmax [1]	DC50 (HiBit-BRM fusion protein)	BRM HiBit Degradation Maximum measured (HiBit-BRM fusion protein)	SMILES
> 10 µM	< 50%	> 10 µM	C (‘C’ = Maximum degradation <50%)	Cc1ncsc1-c1ccc(CNC(=O)[C@H]2C[C@@H](O)CN2C(=O)[C@@H](NC(=O)COCCOCCOCCNC(=O)CCCOCC[C@H](NC(=O)c2ccn(S(C)(=O)=O)c2)C(=O)Nc2nc(-c3ccccc3)cs2)C(C)(C)C)cc1 [Compound 250, (2R,4R)-4-hydroxy-1-[(2S)-2-(2-[2-[2-(2-[4-[(3S)-3-[(1-methanesulfonylpyrrol-3-yl)formamido]-3-[(4-phenyl-1,3-thiazol-2-yl)carbamoyl]propoxy]butanamido]ethoxy)ethoxy]ethoxy]acetamido)-3,3-dimethylbutanoyl]-N-[[4-(4-methyl-1,3-thiazol-5-yl)phenyl]methyl]pyrrolidine-2-carboxamide]
> 10 µM	< 50%	> 10 µM	C (‘C’ = Maximum degradation <50%)	Cc1ncsc1-c1ccc(CNC(=O)[C@@H]2C[C@@H](O)CN2C(=O)[C@@H](NC(=O)CCCCCNC(=O)CCCOCC[C@H](NC(=O)c2ccn(S(C)(=O)=O)c2)C(=O)Nc2nc(-c3ccccc3)cs2)C(C)(C)C)cc1 [Compound 251, (2S,4R)-4-hydroxy-1-[(2S)-2-(6-[4-[(3S)-3-[(1-methanesulfonylpyrrol-3-yl)formamido]-3-[(4-phenyl-1,3-thiazol-2-yl)carbamoyl]propoxy]butanamido]hexanamido)-3,3-dimethylbutanoyl]-N-[[4-(4-methyl-1,3-thiazol-5-yl)phenyl]methyl]pyrrolidine-2-carboxamide]
> 10 µM	< 50%	> 10 µM	C (‘C’ = Maximum degradation <50%)	CN(CCNC(=O)CCCOCC[C@H](NC(=O)c1ccn(S(C)(=O)=O)c1)C(=O)Nc1nc(-c2ccccc2)cs1)CCNC(=O)COc1cccc2c1C(=O)N(C1CCC(=O)NC1=O)C2=O.O=CO (stereo partly drawn) [Compound 252, (2S)-4-[3-[(2-[[2-(2-[[2-(2,6-dioxopiperidin-3-yl)-1,3-dioxoisoindol-4-yl]oxy]acetamido)ethyl](methyl)amino]ethyl)carbamoyl]propoxy]-2-[(1-methanesulfonylpyrrol-3-yl)formamido]-N-(4-phenyl-1,3-thiazol-2-yl)butanamide; formic acid]
> 10 µM	< 50%	> 10 µM	C (‘C’ = Maximum degradation <50%)	CS(=O)(=O)n1ccc(C(=O)N[C@@H](CCOCCCC(=O)NCCS(=O)(=O)CCNc2cccc3c2C(=O)N(C2CCC(=O)NC2=O)C3=O)C(=O)Nc2nc(-c3ccccc3)cs2)c1 (stereo partly drawn) [Compound 253, (2S)-4-(3-[[2-(2-[[2-(2,6-dioxopiperidin-3-yl)-1,3-dioxoisoindol-4-yl]amino]ethanesulfonyl)ethyl]carbamoyl]propoxy)-2-[(1-methanesulfonylpyrrol-3-yl)formamido]-N-(4-phenyl-1,3-thiazol-2-yl)butanamide]
> 10 µM	< 50%	> 10 µM	C (‘C’ = Maximum degradation <50%)	CS(=O)(=O)n1ccc(C(=O)N[C@@H](CCOCCCC(=O)N2CCC(CCCCN3CCN(c4ccc5c(c4)C(=O)N(C4CCC(=O)NC4=O)C5=O)CC3)CC2)C(=O)Nc2nc(-c3ccccc3)cs2)c1 (some centres unmarked) [Compound 257]
> 10 µM	< 50%	> 10 µM	C (‘C’ = Maximum degradation <50%)	CS(=O)(=O)n1ccc(C(=O)N[C@@H](CCOCCCC(=O)NCCOCCOCCOCCNC(=O)COc2cccc3c2C(=O)N(C2CCC(=O)NC2=O)C3=O)C(=O)Nc2nc(-c3ccccc3)cs2)c1 (stereo partly drawn) [Compound 258, (2S)-4-(3-[[2-(2-[2-[2-(2-[[2-(2,6-dioxopiperidin-3-yl)-1,3-dioxoisoindol-4-yl]oxy]acetamido)ethoxy]ethoxy]ethoxy)ethyl]carbamoyl]propoxy)-2-[(1-methanesulfonylpyrrol-3-yl)formamido]-N-(4-phenyl-1,3-thiazol-2-yl)butanamide]

SMILES	DC50 [1]	Dmax [1]	DC50 (HiBit-BRM fusion protein)	BRM HiBit Degradation Maximum measured (HiBit-BRM fusion protein)
CS(=O)(=O)n1ccc(C(=O)N[C@@H](CCOCCCC(=O)N2CCN(CCCCCOc3ccc4c(c3)C(=O)N(C3CCC(=O)NC3=O)C4=O)CC2)C(=O)Nc2nc(-c3ccccc3)cs2)c1 (stereo partly drawn) [Compound 254, (2S)-4-[4-[4-(5-[[2-(2,6-dioxopiperidin-3-yl)-1,3-dioxoisoindol-5-yl]oxy]pentyl)piperazin-1-yl]-4-oxobutoxy]-2-[(1-methanesulfonylpyrrol-3-yl)formamido]-N-(4-phenyl-1,3-thiazol-2-yl)butanamide]	> 10 µM	< 50%	> 10 µM	C (‘C’ = Maximum degradation <50%)
CS(=O)(=O)n1ccc(C(=O)N[C@@H](CCOCCCC(=O)N2CCN(CCCOc3ccc4c(c3)C(=O)N(C3CCC(=O)NC3=O)C4=O)CC2)C(=O)Nc2nc(-c3ccccc3)cs2)c1 (stereo partly drawn) [Compound 255, (2S)-4-[4-[4-(3-[[2-(2,6-dioxopiperidin-3-yl)-1,3-dioxoisoindol-5-yl]oxy]propyl)piperazin-1-yl]-4-oxobutoxy]-2-[(1-methanesulfonylpyrrol-3-yl)formamido]-N-(4-phenyl-1,3-thiazol-2-yl)butanamide]	> 10 µM	< 50%	> 10 µM	C (‘C’ = Maximum degradation <50%)
CS(=O)(=O)n1ccc(C(=O)N[C@@H](CCOCCCC(=O)N2CC(Oc3ccc4c(c3)C(=O)N(C3CCC(=O)NC3=O)C4=O)C2)C(=O)Nc2nc(-c3ccccc3)cs2)c1 (stereo partly drawn) [Compound 256, (2S)-4-[4-(3-[[2-(2,6-dioxopiperidin-3-yl)-1,3-dioxoisoindol-5-yl]oxy]azetidin-1-yl)-4-oxobutoxy]-2-[(1-methanesulfonylpyrrol-3-yl)formamido]-N-(4-phenyl-1,3-thiazol-2-yl)butanamide]	> 10 µM	< 50%	> 10 µM	C (‘C’ = Maximum degradation <50%)
CS(=O)(=O)n1ccc(C(=O)N[C@@H](CCOCCCC(=O)N2CC(COc3cccc4c3C(=O)N(C3CCC(=O)NC3=O)C4=O)C2)C(=O)Nc2nc(-c3ccccc3)cs2)c1 (stereo partly drawn) [Compound 259, (2S)-4-[4-[3-([[2-(2,6-dioxopiperidin-3-yl)-1,3-dioxoisoindol-4-yl]oxy]methyl)azetidin-1-yl]-4-oxobutoxy]-2-[(1-methanesulfonylpyrrol-3-yl)formamido]-N-(4-phenyl-1,3-thiazol-2-yl)butanamide]	> 10 µM	< 50%	> 10 µM	C (‘C’ = Maximum degradation <50%)
CS(=O)(=O)n1ccc(C(=O)N[C@@H](CCOCCCC(=O)N2CC(COc3ccc4c(c3)C(=O)N(C3CCC(=O)NC3=O)C4=O)C2)C(=O)Nc2nc(-c3ccccc3)cs2)c1 (stereo partly drawn) [Compound 260, (2S)-4-[4-[3-([[2-(2,6-dioxopiperidin-3-yl)-1,3-dioxoisoindol-5-yl]oxy]methyl)azetidin-1-yl]-4-oxobutoxy]-2-[(1-methanesulfonylpyrrol-3-yl)formamido]-N-(4-phenyl-1,3-thiazol-2-yl)butanamide]	> 10 µM	< 50%	> 10 µM	C (‘C’ = Maximum degradation <50%)
